Target: T1, hFAP (Homo sapiens, UniProt Q12884)
T1 sequence (Q12884 1-760): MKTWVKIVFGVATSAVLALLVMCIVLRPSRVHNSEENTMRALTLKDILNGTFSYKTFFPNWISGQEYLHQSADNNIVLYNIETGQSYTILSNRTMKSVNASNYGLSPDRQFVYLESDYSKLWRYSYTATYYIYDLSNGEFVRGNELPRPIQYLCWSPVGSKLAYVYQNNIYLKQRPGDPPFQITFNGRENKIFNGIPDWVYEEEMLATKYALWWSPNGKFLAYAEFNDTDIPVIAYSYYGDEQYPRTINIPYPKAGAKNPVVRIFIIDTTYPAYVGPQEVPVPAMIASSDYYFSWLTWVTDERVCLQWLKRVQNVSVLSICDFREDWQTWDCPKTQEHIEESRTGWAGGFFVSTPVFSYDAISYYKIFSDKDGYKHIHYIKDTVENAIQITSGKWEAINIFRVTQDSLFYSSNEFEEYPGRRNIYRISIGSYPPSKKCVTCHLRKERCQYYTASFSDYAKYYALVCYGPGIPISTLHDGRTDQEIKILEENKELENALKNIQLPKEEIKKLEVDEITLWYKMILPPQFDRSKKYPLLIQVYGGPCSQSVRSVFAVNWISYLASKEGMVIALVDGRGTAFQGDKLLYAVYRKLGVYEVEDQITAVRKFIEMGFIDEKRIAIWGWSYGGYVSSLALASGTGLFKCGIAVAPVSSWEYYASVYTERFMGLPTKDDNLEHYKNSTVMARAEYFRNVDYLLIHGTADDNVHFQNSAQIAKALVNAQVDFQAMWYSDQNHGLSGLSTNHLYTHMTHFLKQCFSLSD
Experiment: In vitro inhibition assay on hFAP (substrate Z-Gly-Pro-AMC)
Type: biochemical
Conditions: isolated hFAP 200 pM, Z-Gly-Pro-AMC 20 μM, room temperature
Experimental: The IC50 of all the ligands against isolated hFAP protein was assessed by an inhibition assay following published protocols (Supplementary Information and Supplementary Fig. 3).
In vitro inhibition assay on hFAP
The enzymatic activity of hFAP on the substrate Z-Gly-Pro-AMC was measured at room temperature on a microtiter plate reader, monitoring the fluorescence at an excitation wavelength of 360 nm and an emission wavelength of 465 nm. The assay was performed by mixing the substrate (20 μM), hFAP (200 pM, constant), and the ligands in assay buffer (50 mM Tris, 1 M NaCl, 1 mg/mL BSA, pH=7.5), with serial dilution of the inhibitors ranging from 250 nM to 2 fM, 1:2 in a total volume of 20 μL.
Experiments were performed in triplicate, and the mean fluorescence values were fitted using GraphPad Prism 9 (equation used: Y = Bottom + (Top − Bottom)/(1 +
((X^HillSlope)/(IC50^HillSlope)))). The IC50 value is defined as the concentration of ligand (inhibitor) required to reduce the enzyme activity by 50% after the addition of the substrate.
The results are presented in the Supplemental Figure 3.
(1 picture or pasted object on this page, not shown here)

CN(CCCN1CCN(C(=O)CC(NC(=O)CN2CCN(CC(=O)O)CCN(CC(=O)O)CCN(CC(=O)O)CC2)C(=O)N2CCN(CCCN(C)c3ccc4nccc(C(=O)NCC(=O)N5CC(F)(F)C[C@H]5C#N)c4c3)CC2)CC1)c1ccc2nccc(C(=O)NCC(=O)N3CC(F)(F)C[C@H]3C#N)c2c1 (stereo partly shown) [FAPI-46-F1D]
IC50: 0.158 ± 0.0145 nM

CC(C)Cc1ccc(C(C)C(=O)NCC(NC(=O)CN2CCN(CC(=O)O)CCN(CC(=O)O)CCN(CC(=O)O)CC2)C(=O)N2CCN(CCCN(C)c3ccc4nccc(C(=O)NCC(=O)N5CC(F)(F)C[C@H]5C#N)c4c3)CC2)cc1 (stereo partly shown) [FAPI-46-Ibu]
IC50: 0.0394 ± 0.0161 nM

CN(CCCN1CCN(C(=O)CN2CCN(CC(=O)O)CCN(CC(=O)O)CCN(CC(=O)O)CC2)CC1)c1ccc2nccc(C(=O)NCC(=O)N3CC(F)(F)C[C@H]3C#N)c2c1 [FAPI-46, reference compound]
IC50: 0.247 ± 0.017 nM

Cc1cc(-c2ccc(NC(=O)CC(NC(=O)CN3CCN(CC(=O)O)CCN(CC(=O)O)CCN(CC(=O)O)CC3)C(=O)N3CCN(CCCN(C)c4ccc5nccc(C(=O)NCC(=O)N6CC(F)(F)CC6C#N)c5c4)CC3)c(C)c2)ccc1N=Nc1ccc2c(S(=O)(=O)O)cc(S(=O)(=O)O)c(N)c2c1O (stereo not shown) [FAPI-46-EB]
IC50: 0.634 ± 0.102 nM

From paper PMC10382406, “Head-to-head comparison of different classes of FAP radioligands designed to increase tumor residence time: monomer, dimer, albumin binders, and small molecules vs peptides” (European Journal of Nuclear Medicine and Molecular Imaging, 2023)
